The source made the active and inactive calls.
Key:
Paired box protein Pax-8 = Paired box protein Pax-8 (Homo sapiens, UniProt Q06710); assay: PAX8 transcriptional activity inhibition in RMG-I – RMG-I cells, luciferase, cherry-pick, dose response (AID 687027); assay type: functional, cell-based;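 note: luciferase reporter driven by Pax8 target thyroperoxidase promoter measured by SteadyGlo luminescence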
[1] = blockers of bursicon-stimulated LGR2 cAMP reporter – cell-based, HEK293, CRE-luciferase reporter, cherry pick, set 2, dose response (AID 743343); assay type: functional;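 note: transfected cells were stimulated with diluted bursicon conditioned medium after compound addition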
[2] = general cell-killing toxicity readout – plate reader, dry powder samples, cytotoxicity control for PAX8 inhibitor project, dose response (AID 743021); assay type: functional, cell-based
[3] = blockade of melanocortin 4 receptor signaling – cell-based, plate reader, cherry pick, counter-screen for LGR2 antagonist project, dose response (AID 743444); assay type: functional;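 note: transfected HEK 293 cells stimulated with alpha-MSH peptide; potency of inhibitors of the alpha-MSH evoked signal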
Fatty acid synthase [4] = target: T1, Fatty acid synthase (Homo sapiens, UniProt P49327); assay: inhibition of human FAS-TE enzyme activity – biochemical, endpoint fluorescence intensity, uHTS hits, dose response (AID 624327); assay type: functional;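 note: fluorescence from hydrolysis of an O-methyl fluorescein acyl ester substrate by the enzyme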
T1 sequence (P49327 whole entry): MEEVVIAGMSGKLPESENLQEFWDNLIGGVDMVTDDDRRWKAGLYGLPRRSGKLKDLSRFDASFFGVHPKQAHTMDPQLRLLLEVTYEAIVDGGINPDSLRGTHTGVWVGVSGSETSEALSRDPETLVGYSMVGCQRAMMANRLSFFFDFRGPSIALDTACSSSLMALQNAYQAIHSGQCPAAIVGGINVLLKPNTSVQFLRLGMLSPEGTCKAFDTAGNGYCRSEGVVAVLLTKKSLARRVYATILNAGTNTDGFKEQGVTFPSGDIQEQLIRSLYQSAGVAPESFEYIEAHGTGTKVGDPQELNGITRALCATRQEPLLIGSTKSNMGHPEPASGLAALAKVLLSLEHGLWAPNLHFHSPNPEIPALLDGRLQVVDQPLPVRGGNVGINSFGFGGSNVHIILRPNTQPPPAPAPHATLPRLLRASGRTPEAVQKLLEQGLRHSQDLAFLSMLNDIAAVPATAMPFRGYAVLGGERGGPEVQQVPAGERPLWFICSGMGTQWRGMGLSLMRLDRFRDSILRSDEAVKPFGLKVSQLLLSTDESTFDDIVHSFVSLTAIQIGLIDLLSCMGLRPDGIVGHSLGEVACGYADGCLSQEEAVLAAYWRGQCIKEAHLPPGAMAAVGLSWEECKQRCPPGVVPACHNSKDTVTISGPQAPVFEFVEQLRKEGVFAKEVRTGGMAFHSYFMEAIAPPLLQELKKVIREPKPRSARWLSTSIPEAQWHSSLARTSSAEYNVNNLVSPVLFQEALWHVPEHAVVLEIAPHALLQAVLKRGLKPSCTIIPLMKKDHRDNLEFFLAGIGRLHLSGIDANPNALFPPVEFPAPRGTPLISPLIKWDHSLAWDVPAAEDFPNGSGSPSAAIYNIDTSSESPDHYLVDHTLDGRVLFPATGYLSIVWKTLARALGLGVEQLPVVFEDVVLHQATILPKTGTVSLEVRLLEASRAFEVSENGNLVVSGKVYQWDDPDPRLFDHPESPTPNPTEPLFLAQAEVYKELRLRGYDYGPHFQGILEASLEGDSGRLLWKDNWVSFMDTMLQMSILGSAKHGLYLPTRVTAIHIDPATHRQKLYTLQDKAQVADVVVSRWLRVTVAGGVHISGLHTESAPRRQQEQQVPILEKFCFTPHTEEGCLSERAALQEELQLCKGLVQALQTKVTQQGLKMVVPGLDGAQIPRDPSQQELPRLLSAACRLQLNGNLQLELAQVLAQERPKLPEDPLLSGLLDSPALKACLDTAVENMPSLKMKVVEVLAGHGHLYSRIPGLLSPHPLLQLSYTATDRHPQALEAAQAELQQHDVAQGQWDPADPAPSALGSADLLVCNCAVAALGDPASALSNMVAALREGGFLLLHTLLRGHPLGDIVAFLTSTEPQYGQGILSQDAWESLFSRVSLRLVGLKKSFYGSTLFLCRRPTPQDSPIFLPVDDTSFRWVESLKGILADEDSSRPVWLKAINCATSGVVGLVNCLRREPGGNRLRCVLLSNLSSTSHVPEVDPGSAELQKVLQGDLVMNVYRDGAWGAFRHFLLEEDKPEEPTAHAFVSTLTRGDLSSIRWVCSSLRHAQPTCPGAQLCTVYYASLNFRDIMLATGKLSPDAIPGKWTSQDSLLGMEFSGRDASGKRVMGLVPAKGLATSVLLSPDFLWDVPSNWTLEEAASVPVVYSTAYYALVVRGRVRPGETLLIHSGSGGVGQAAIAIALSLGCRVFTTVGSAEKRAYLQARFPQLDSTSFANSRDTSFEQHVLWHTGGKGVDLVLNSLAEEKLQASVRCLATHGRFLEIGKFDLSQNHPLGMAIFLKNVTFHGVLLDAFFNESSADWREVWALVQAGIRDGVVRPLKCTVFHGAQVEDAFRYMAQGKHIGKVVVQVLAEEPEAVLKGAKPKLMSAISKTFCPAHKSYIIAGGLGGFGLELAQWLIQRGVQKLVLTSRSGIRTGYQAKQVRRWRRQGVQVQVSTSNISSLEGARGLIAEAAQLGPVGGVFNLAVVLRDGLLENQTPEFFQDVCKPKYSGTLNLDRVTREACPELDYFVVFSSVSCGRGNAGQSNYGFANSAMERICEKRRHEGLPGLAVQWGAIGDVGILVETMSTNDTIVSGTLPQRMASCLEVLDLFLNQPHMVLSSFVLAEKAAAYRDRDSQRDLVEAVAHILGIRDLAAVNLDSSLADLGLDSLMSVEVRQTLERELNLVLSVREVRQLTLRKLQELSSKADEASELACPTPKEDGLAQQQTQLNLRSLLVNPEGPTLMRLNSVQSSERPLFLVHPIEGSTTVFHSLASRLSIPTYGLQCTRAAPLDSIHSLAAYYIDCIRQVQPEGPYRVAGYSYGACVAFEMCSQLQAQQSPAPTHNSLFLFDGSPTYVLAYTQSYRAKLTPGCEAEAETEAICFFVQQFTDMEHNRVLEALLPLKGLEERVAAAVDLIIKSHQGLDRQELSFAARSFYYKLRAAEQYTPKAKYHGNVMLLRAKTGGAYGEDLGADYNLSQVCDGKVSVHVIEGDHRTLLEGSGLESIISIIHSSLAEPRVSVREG

Fatty acid synthase [5] = target: T1, Fatty acid synthase; assay: inhibition of human FAS-TE enzyme activity – biochemical, kinetic fluorescence intensity, dose response (AID 624326); assay type: functional;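 note: rate of fluorescence rise from hydrolysis of a fluorogenic O-methyl fluorescein ester substrate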
[6] = target: T2, Apoptotic protease-activating factor 1 (Homo sapiens, UniProt O14727); assay type: functional
T2 sequence (O14727 whole entry): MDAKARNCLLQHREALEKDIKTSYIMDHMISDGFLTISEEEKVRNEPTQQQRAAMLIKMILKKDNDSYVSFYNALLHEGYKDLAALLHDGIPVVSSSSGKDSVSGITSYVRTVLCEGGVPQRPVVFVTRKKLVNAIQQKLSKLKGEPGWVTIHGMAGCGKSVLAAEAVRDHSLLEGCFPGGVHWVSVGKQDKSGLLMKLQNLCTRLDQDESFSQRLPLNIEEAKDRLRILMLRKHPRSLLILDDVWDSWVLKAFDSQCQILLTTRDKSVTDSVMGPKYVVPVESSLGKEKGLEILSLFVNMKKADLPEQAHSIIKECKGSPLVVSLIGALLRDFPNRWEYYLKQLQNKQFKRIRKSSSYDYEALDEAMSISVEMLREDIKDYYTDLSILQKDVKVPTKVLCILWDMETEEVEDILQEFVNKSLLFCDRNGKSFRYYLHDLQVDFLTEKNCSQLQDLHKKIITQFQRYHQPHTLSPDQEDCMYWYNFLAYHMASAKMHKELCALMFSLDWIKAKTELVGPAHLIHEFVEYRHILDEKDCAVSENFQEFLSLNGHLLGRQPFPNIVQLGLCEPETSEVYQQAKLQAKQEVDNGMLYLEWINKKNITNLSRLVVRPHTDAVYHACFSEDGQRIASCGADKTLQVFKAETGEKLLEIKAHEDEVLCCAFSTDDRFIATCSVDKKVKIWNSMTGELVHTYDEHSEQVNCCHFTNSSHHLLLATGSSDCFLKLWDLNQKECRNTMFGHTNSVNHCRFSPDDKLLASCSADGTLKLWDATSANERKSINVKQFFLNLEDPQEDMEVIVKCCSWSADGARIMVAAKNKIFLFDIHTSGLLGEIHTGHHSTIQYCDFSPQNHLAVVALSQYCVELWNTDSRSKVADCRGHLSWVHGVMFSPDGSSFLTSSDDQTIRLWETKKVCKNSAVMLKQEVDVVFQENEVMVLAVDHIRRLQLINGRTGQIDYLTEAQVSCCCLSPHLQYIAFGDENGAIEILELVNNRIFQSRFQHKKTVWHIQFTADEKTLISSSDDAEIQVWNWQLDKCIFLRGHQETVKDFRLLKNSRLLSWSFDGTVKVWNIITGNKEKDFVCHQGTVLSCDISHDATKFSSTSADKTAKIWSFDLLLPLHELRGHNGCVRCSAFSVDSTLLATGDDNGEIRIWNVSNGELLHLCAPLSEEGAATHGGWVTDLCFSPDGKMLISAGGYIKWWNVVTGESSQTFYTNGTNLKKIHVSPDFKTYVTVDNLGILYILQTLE

[7] = luciferase reporter signal suppression in cells – H4 neuroglioma cells, luminescence, dose response (AID 1990); assay type: functional, cell-based
[8] = Luminescence Cell-Based Dose Response HTS to Identify Inhibitors of 5'UTR Stem-Loop Driven Prion Protein mRNA Translation in H4 Neuroglioblastoma Cells. [Related pubchem assays: 1827 (Project Summary), 1813 (Primary HTS)]; assay type: functional
[9] = alpha-synuclein stem-loop luciferase translation blockers – H4 neuroglioma cells, luminescence, confirmation (AID 1988); assay type: functional, cell-based
[10] = microbe, parasite or virus in culture; assay type: functional; conditions: Mycobacterium tuberculosis
[11] = Luminescence Cell-Based Dose Retest to Confirm Inhibitors of Cancer Stem Cells. [Related pubchem assays (depositor defined):AID2717, AID2721]; assay type: functional; conditions: Homo sapiens
[12] = target: T3, Ubiquitin-conjugating enzyme E2 N (Homo sapiens, UniProt P61088); assay type: functional;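 note: Dose-response confirmation in a TR-FRET assay detecting UBC13-driven polyubiquitin chain formation, inhibition measured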
T3 sequence (P61088 whole entry): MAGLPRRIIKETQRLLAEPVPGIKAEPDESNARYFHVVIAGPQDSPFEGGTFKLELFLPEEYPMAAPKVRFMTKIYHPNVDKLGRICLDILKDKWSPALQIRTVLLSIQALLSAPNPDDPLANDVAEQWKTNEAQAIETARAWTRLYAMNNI

[13] = viability of PTEN-deleted HCT116 cells – cell-based, HCT116 PTEN knockout, dose response (AID 1047); assay type: functional;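 note: HCT116 colon tumor cells with PTEN knocked out; cells exposed to compound for 60 hours before readout; potency for loss of cell viability measured by luminescence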
[14] = viability of HCT116 lacking mutant beta-catenin – cell-based, human colon tumor, dose response (AID 1045); assay type: functional;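 note: HCT116 colon tumor cells with beta catenin knocked out; cells exposed to compound for 60 hours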
[15] = target: Heat shock protein HSP 90-alpha (Homo sapiens, UniProt P07900); assay type: functional, organism-based
INS1 = assay: INS-1E survival protection against cytokine death – cell-based, luminescence, retest, dose response (AID 449756); assay type: functional; conditions: Rattus norvegicus;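 note: cell death triggered by IL-1 beta plus TNF-alpha plus IFN-gamma mixture; protective hits raise ATP signal compared with cytokine alone wells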
[16] = target: T4, RNA-binding protein pos-1 (Caenorhabditis elegans, UniProt G5EF15); assay: disruptors of C. elegans POS-1 RNA interaction – biochemical, fluorescence polarization, dose response (AID 1964);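 note: purified POS-1 fused to maltose binding protein made in E. coli; potency of compounds blocking POS-1 binding to fluorescent RNA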
T4 sequence (G5EF15 whole entry): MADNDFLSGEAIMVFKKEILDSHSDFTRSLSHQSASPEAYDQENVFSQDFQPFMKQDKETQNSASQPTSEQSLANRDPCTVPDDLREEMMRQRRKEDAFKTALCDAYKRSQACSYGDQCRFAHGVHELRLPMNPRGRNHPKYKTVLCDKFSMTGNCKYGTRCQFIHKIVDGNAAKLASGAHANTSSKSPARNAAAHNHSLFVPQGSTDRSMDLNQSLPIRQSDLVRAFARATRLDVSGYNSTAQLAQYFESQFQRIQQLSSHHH

[17] = target: T5, Zinc finger protein mex-5 (Caenorhabditis elegans, UniProt Q9XUB2); assay: potency of MEX-5 RNA-binding blockers – biochemical, C. elegans, fluorescence polarization, dose response (AID 1960)
T5 sequence (Q9XUB2 whole entry): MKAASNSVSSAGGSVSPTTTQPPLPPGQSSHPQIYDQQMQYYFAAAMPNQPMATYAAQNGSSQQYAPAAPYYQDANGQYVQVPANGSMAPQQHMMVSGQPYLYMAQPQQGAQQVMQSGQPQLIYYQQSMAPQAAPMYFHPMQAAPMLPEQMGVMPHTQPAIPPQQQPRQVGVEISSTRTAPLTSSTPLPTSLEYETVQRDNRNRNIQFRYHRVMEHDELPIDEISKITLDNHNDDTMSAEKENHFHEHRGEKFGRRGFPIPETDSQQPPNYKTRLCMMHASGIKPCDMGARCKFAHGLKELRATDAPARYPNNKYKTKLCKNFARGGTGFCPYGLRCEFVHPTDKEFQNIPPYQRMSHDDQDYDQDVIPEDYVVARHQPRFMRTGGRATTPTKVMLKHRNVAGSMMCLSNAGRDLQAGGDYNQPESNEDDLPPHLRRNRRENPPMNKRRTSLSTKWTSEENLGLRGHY

[18] = target: T6, Endoribonuclease toxin MazF (Escherichia coli K-12, UniProt P0AE70); assay: activation of MazEF endoribonuclease cleavage – biochemical, fluorescence, single-stranded RNA substrate, uHTS hits, dose response (AID 588481); assay type: functional
T6 sequence (P0AE70 whole entry): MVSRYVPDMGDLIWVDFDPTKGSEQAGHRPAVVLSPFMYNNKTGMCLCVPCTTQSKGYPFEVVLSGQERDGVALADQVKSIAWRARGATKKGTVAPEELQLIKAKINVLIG

[19] = target: T6, Endoribonuclease toxin MazF; assay: substrate-only fluorescence increase artefacts – biochemical, single-stranded RNase substrate, counter-screen for MazEF activator project, dose response (AID 588502); assay type: functional
[20] = target: T7, Corticotropin-releasing factor receptor 2/Corticotropin-releasing factor-binding protein (Homo sapiens, UniProt P24387+Q13324); assay: activators of CRF receptor 2 with binding protein – uHTS hits, confirmation (AID 602473); assay type: functional; conditions: read-out: EC50_Mean
T7 sequence (Q13324 whole entry): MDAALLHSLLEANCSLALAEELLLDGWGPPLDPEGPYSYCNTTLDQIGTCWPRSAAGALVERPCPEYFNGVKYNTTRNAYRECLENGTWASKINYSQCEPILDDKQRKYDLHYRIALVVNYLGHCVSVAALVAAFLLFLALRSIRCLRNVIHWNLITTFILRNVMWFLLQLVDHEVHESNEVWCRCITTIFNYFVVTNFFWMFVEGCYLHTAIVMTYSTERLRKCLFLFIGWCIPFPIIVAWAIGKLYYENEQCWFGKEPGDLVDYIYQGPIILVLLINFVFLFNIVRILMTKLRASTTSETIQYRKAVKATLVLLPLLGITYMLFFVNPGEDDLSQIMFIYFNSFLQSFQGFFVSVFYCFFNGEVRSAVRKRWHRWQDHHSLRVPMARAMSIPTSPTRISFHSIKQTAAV
T7 sequence (P24387 whole entry): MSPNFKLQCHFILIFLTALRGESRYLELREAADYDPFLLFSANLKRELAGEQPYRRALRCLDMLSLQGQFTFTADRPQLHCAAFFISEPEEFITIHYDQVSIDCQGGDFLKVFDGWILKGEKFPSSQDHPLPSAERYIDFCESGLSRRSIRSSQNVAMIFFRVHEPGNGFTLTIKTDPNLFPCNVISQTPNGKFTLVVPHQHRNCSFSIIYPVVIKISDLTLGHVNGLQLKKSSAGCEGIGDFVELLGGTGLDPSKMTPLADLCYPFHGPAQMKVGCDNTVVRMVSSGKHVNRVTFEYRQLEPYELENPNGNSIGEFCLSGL

Paired box protein Pax-8, sequence (Q06710 whole entry): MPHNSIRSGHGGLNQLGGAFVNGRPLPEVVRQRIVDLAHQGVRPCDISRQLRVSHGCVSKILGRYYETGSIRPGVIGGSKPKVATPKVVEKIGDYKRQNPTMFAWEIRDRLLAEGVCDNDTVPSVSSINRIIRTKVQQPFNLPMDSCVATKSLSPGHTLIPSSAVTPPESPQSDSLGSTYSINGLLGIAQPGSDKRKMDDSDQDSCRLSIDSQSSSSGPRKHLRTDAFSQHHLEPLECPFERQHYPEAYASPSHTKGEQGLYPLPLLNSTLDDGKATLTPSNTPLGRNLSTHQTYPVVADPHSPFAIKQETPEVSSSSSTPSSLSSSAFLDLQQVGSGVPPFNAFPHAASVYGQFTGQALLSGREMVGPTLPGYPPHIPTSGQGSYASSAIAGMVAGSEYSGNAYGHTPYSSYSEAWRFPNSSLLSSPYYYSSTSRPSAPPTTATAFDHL

SMILES: Cc1ccc2nc(-c3ccc(Br)cc3)cn2c1
- AC50 (Paired box protein Pax-8): 11.2 µM (active)
- AC50 [1]: 0.662 µM (active)
- AC50 [2]: 24.6 µM (active)
- AC50 [3]: 0.704 µM (active)

SMILES: CC(C)(C)OC(=O)CNC(=O)c1[nH]cnc1C(=O)N[C@@H](CCCCNC(=O)OC(C)(C)C)C(=O)OC(C)(C)C
- IC50 (Fatty acid synthase [4]): 0.517 µM (active)
- IC50 (Fatty acid synthase [5]): 0.364 µM (active)

SMILES: O=C(OCC(=O)N1CCc2ccccc2C1)c1ccc(Cl)c([N+](=O)[O-])c1
- IC50 (Fatty acid synthase [4]): 5.45 µM (active)
- IC50 (Fatty acid synthase [5]): 2.41 µM (active)

SMILES: O=C(CCn1c2c(c3ccccc31)CCCC2)NNC(=O)c1ccc(Cl)c([N+](=O)[O-])c1
- IC50 [6]: 0.798 µM (active)

SMILES: Cc1cc(Br)ccc1NC(=O)C(C)c1ccc([N+](=O)[O-])cc1 (stereo not given)
- IC50 (Fatty acid synthase [4]): 31.9 µM (inactive)
- IC50 (Fatty acid synthase [5]): 18.8 µM (active)

SMILES: CCN1CCN(Cc2ccc(NC(=O)c3cc(NC(=O)c4cncc(-c5cccs5)c4)cc(OC)c3)cc2C(F)(F)F)CC1
- EC50 [7]: > 120 µM (not active)
- EC50 [8]: 8.93 µM (active)
- EC50 [9]: > 120 µM (not active)
- CC50 [10]: 8.62 µM (active)
- AC50 [11]: 7.38 µM (active)
- IC50 [12]: > 20 µM (inactive)

SMILES: CCCCOc1ccc(C(=O)NCC(=O)NCC(c2cccs2)N2CCOCC2)cc1 (stereo not given)
- IC50 [6]: > 100 µM (inactive)

SMILES: O=C(CN1CCN(C(=O)COc2cccc(F)c2)CC1)Nc1ccc(Cl)c(C(F)(F)F)c1
- CC50 [10]: > 40 µM (active)

SMILES: Cn1c(SCC(=O)N/N=C/c2ccc([N+](=O)[O-])s2)nnc1-c1ccc(Cl)cc1
- EC50 [13]: 4.91 µM (active)
- EC50 [14]: 4.82 µM (active)
- AC50 [15]: 2.55 µM (active)
- AC50 (INS1): 9.33 µM (active)

SMILES: CC(C)(C)c1ccc(OCCC(=O)OCC(=O)NCc2ccccc2)cc1
- IC50 (Fatty acid synthase [4]): 6.55 µM (active)
- IC50 (Fatty acid synthase [5]): 6.7 µM (active)

SMILES: COC(=O)Cn1cc(/C=C2\C(=O)NC(=O)N(c3ccc(OC)cc3)C2=O)c2ccccc21
- EC50 [16]: 69.1 µM (active)
- EC50 [17]: 6.99 µM (active)
- EC50 [18]: > 99 µM (inactive)
- EC50 [19]: 71.4 µM (inactive)
- EC50 [20]: 5.57 µM (active)
